Reference: the Deep4Chem optical property database
Blank lines part the entries; values can stand above or below the compound they belong to.

Test: solvent given as SMILES

Structure (SMILES): CCCCC(CC)CN1C(=O)c2cc(Oc3ccc(OC)cc3)c3c4c(Oc5ccc(C(C)(C)C)cc5)cc5c6c(cc(Oc7ccc(C(C)(C)C)cc7)c(c7c(Oc8ccc(OC)cc8)cc(c2c37)C1=O)c64)C(=O)N(c1c(C(C)C)cccc1C(C)C)C5=O (stereo not drawn)
- emission maximum (in Cc1ccccc1): 608 nm

Structure (SMILES): COC1=C/C(=C\C=C2C=CN(Cc3ccc(Br)cc3)C=C2)C=CC1=O
- emission maximum (in CC#N): 665 nm
- emission maximum (in CC(C)=O): 670 nm
- emission maximum (in CC(C)CO): 642 nm
- emission maximum (in CC(C)O): 641 nm
- emission maximum (in CCC#N): 665 nm
- emission maximum (in CCCCCCO): 645 nm
- emission maximum (in CCCCCO): 643 nm
- emission maximum (in CCCCO): 640 nm
- emission maximum (in CCCO): 639 nm
- emission maximum (in CCO): 638 nm
- emission maximum (in CN(C)C=O): 682 nm
- emission maximum (in CN(C)P(=O)(N(C)C)N(C)C): 670 nm
- emission maximum (in CO): 636 nm
- emission maximum (in CS(C)=O): 669 nm

Structure (SMILES): CCCCNc1ccc(NCCCC)c2c1C(=O)c1ccccc1C2=O
- emission maximum (in C1CCCCC1): 665 nm
- emission maximum (in C1COCCO1): 672 nm
- emission maximum (in CC(C)=O): 671 nm
- emission maximum (in CCCCCCCCCCO): 668 nm
- emission maximum (in CCCCCCCO): 661 nm
- emission maximum (in CCCCCCO): 670 nm
- emission maximum (in CCCCO): 671 nm
- emission maximum (in CCO): 674 nm
- emission maximum (in CN(C)C=O): 664 nm
- emission maximum (in CO): 666 nm
- emission maximum (in CS(C)=O): 678 nm
- emission maximum (in ClC(Cl)(Cl)Cl): 675 nm
- emission maximum (in c1ccccc1): 667 nm

Structure (SMILES): Oc1ccccc1-c1nc2c3ccccc3c3ccccc3c2n1-c1ccccc1
- emission maximum (in Cc1ccccc1): 369 nm

Structure (SMILES): CC1(C)CC(/C=C/c2ccc(-n3cncn3)cc2)=CC(=C(C#N)C#N)C1
- emission maximum (in C1CCOC1): 520 nm
- emission maximum (in CC#N): 522 nm
- emission maximum (in CCO): 518 nm
- emission maximum (in CCOC(C)=O): 515 nm
- emission maximum (in ClCCl): 518 nm
- emission maximum (in c1ccccc1): 511 nm

Structure (SMILES): COC(=O)[C@H](Cc1ccccc1)Nc1c(C(C)=O)c(=O)oc2cc(N(C)C)ccc12
- emission maximum (in ClCCl): 449 nm

Structure (SMILES): CCC[n+]1ccc(/C=C/c2ccc(N(C)C)cc2)cc1
- emission maximum (in C1COCCO1): 557 nm
- emission maximum (in CC(C)O): 571 nm
- emission maximum (in CCCCO): 576 nm
- emission maximum (in CCCO): 576 nm
- emission maximum (in CCO): 576 nm
- emission maximum (in CO): 579 nm
- emission maximum (in CS(C)=O): 589 nm
- emission maximum (in ClC(Cl)Cl): 560 nm
- emission maximum (in ClCCl): 560 nm
- emission maximum (in c1ccccc1): 552 nm

Structure (SMILES): NS(=O)(=O)c1ccc(N2N=C(c3ccc(O)cc3)CC2c2ccc(Br)cc2)cc1 (stereo not drawn)
- emission maximum (in C1CCOC1): 417 nm
- emission maximum (in C1COCCO1): 417 nm
- emission maximum (in CC#N): 417 nm
- emission maximum (in CC(C)O): 423 nm
- emission maximum (in CCO): 428 nm
- emission maximum (in CCOC(C)=O): 415 nm
- emission maximum (in CN(C)C=O): 422 nm
- emission maximum (in CO): 432 nm
- emission maximum (in CS(C)=O): 424 nm
- emission maximum (in O): 449 nm

Structure (SMILES): CCCCC(CC)Cn1c2cc(C#N)ccc2c2ccc(C#Cc3ccc4ccc5cccc6ccc3c4c56)cc21 (stereo not drawn)
- emission maximum (in ClCCl): 420 nm

Structure (SMILES): Oc1ccccc1/C=N/CC/N=C/c1ccccc1O
- emission maximum (in CC#N): 461 nm

Structure (SMILES): CCCCCCCCCCCCOc1cc(C(=O)Nc2ccc(-c3ccc4c(c3)C(=O)c3ccccc3-4)cc2)cc(OCCCCCCCCCCCC)c1OCCCCCCCCCCCC
- emission maximum (in C1CCOC1): 529 nm

Structure (SMILES): N#C/C(=C\c1ccc(C#N)cc1)c1nc(-c2ccccc2)cs1
- emission maximum (in CC#N): 501 nm
- emission maximum (in CCO): 500 nm
- emission maximum (in CN(C)C=O): 507 nm
- emission maximum (in Cc1ccccc1): 472 nm
- emission maximum (in ClCCl): 490 nm

Structure (SMILES): Cc1c2ccc3c(C)[n+](C)ccc3c2cc[n+]1C
- emission maximum (in CC#N): 408 nm

Structure (SMILES): CC1(C)CC(NCc2ccc3ccc4cccc5ccc2c3c45)CC(C)(C)N1[O]
- emission maximum (in C1CCCCC1): 375 nm
- emission maximum (in CC#N): 376 nm
- emission maximum (in CO): 375 nm
- emission maximum (in ClC(Cl)Cl): 376 nm

Structure (SMILES): COc1c(C(C)=O)c(=O)oc2cc(N(C)C)ccc12
- emission maximum (in ClCCl): 419 nm

Structure (SMILES): FC(F)(F)C(F)(F)C(F)(F)c1nc2c(-c3ccsc3)cc3c4cc(-c5ccsc5)c5nc(C(F)(F)C(F)(F)C(F)(F)F)nc6c(-c7ccsc7)cc(c7cc(-c8ccsc8)c(n1)c2c37)c4c56
- emission maximum (in C1CCOC1): 574 nm

Structure (SMILES): CC(C)(C)c1ccc2c(c1)c1cc(C(C)(C)C)ccc1n2-c1ccc(S(=O)(=O)c2cccc(S(=O)(=O)c3ccc(-n4c5ccc(C(C)(C)C)cc5c5cc(C(C)(C)C)ccc54)cc3)c2)cc1
- emission maximum (in Cc1ccccc1): 422 nm

Structure (SMILES): Cn1c2ccccc2c(=O)c2ccccc21
- emission maximum (in CS(C)=O): 417 nm
- emission maximum (in O): 430 nm

Structure (SMILES): C(S/C=C/c1ccc(-c2ccc(/C=C/SC=C3CCCCC3)cc2)cc1)=C1CCCCC1
- emission maximum (in ClCCl): 433 nm

Structure (SMILES): Cc1cccc2cc(-c3cc4cccc(C)c4oc3=O)oc12
- emission maximum (in CC#N): 451 nm
- emission maximum (in CCOC(C)=O): 436 nm
- emission maximum (in CS(C)=O): 456 nm
- emission maximum (in Cc1ccccc1): 436 nm
- emission maximum (in O): 488 nm

Structure (SMILES): O=c1oc2ccccc2c(O)c1C(CC(O)c1ccc(-c2ccc(Br)cc2)cc1)c1ccccc1 (stereo not drawn)
- emission maximum (in CC#N): 403 nm
- emission maximum (in CCO): 392 nm
- emission maximum (in CO): 394 nm
- emission maximum (in O): 397 nm

Structure (SMILES): CCCC1(CCC)c2cc(-c3ccco3)ccc2-c2ccc(-c3ccco3)cc21
- emission maximum (in C1CCCCC1): 377 nm

Structure (SMILES): CC(C)(C)c1ccc2c3ccccc3c3cncnc3c2c1
- emission maximum (in ClCCl): 376 nm

Structure (SMILES): CC(=O)[B-]1(C(C)=O)OC(c2ccccc2)=CC(c2ccc3ccccc3c2)=[O+]1
- emission maximum (in CC#N): 510 nm
- emission maximum (in ClC(Cl)(Cl)Cl): 419 nm

Structure (SMILES): O=S(=O)([O-])c1cccc2c(O)cccc12
- emission maximum (in O): 426 nm

Structure (SMILES): COc1ccc2cc(-c3ccccc3CC#N)c(=O)oc2c1
- emission maximum (in ClC(Cl)Cl): 409 nm

Structure (SMILES): CCC1=C(C)C2=Cc3c4ccccc4c4n3[B-](c3ccc5ccc6cccc7ccc3c5c67)(Oc3ccccc3-4)[N+]2=C1C (stereo not drawn)
- emission maximum (in CC#N): 635 nm
- emission maximum (in CCCCCC): 638 nm
- emission maximum (in Cc1ccccc1): 642 nm
- emission maximum (in ClCCl): 640 nm

Structure (SMILES): C[N+]1=C(/C=C/C=C2/N(CCC[N+](C)(C)C)c3ccc(Br)cc3C2(C)C)C(C)(C)c2ccccc21
- emission maximum (in CS(C)=O): 568 nm

Structure (SMILES): CC(=O)Nc1ccc2ccc3cccc4ccc1c2c34
- emission maximum (in CC#N): 386 nm
- emission maximum (in CCCCOCCCC): 385 nm
- emission maximum (in CO): 383 nm

Structure (SMILES): COC(=O)C(NC(=O)OC(C)(C)C)c1ccc2oc(-c3cc(OC)c(OC)cc3OC)nc2c1 (stereo not drawn)
- emission maximum (in CC1CCCCC1): 357 nm
- emission maximum (in CC#N): 383 nm
- emission maximum (in CO): 389 nm

Structure (SMILES): COc1ccc(N2c3ccc4ccccc4c3-c3c4ccccc4cc[n+]3[B-]2(c2ccccc2)c2ccccc2)cc1
- emission maximum (in Cc1ccccc1): 641 nm

Structure (SMILES): O=C(c1ccccc1)c1cc2ccc1CCc1ccc(cc1-c1ccc(N(c3ccccc3)c3ccccc3)cc1)CC2
- emission maximum (in Cc1ccccc1): 492 nm
- emission maximum (in c1cc(-n2c3ccccc3c3ccccc32)cc(-n2c3ccccc3c3ccccc32)c1): 481.13 nm

Structure (SMILES): C[C@@]12SC(Cl)=CC1=c1nc(-c3ccc(Cl)cc3)[nH]c1=C1C=C(Cl)S[C@]12C
- emission maximum (in CC#N): 449 nm

Structure (SMILES): Fc1ccc2cc3cccc[n+]3cc2c1
- emission maximum (in O): 408 nm

Structure (SMILES): CCCCCCOc1ccc(-c2ccc(/C=C/c3cc(/C=C/c4ccc(-c5ccc(OCCCCCC)cc5)cc4)ncn3)cc2)cc1
- emission maximum (in ClCCl): 483 nm

The next lines start with the values.

- emission maximum (in ClC(Cl)Cl): 614 nm
Structure (SMILES): Cc1cc(C)c(C2=C3C=CC(c4ccccc4O)=[N+]3[B-]3(c4ccccc4)Oc4ccccc4-c4ccc2n43)c(C)c1 (stereo not drawn)

- emission maximum (in CO): 488 nm
Structure (SMILES): c1ccc(N(c2ccccc2)c2ccc(-c3cnc(-c4ccc(N(c5ccccc5)c5ccccc5)cc4)s3)cc2)cc1

- emission maximum (in ClC(Cl)Cl): 647 nm
Structure (SMILES): CCCCCCCCN1C(=O)c2ccc3c4c(-c5ccc6c7ccccc7n(-c7ccccc7)c6c5)cc5c6c(ccc(c7c(-c8ccc9c%10ccccc%10n(-c%10ccccc%10)c9c8)cc(c2c37)C1=O)c64)C(=O)N(CCCCCCCC)C5=O

- emission maximum (in O): 502 nm
Structure (SMILES): CC[n+]1c(-c2ccccc2)c2cc(-n3cccc3)ccc2c2ccc(-n3cccc3)cc21

- emission maximum (in CC#N): 427 nm
Structure (SMILES): c1ccc(C[n+]2cc3ccc4c[n+](Cc5ccccc5)cc5ccc(c2)c3c45)cc1

- emission maximum (in ClCCl): 466 nm
Structure (SMILES): Cc1cn2cc(-c3ccc(-c4ccccc4)cc3)[n-][n+]2c1

- emission maximum (in C1CCOC1): 399 nm
Structure (SMILES): F[Si-](F)(c1ccccc1)(c1ccccc1)c1c2ccccc2cc2ccccc12

- emission maximum (in ClCCl): 544 nm
Structure (SMILES): CC(C)[Si](C#Cc1c2ccccc2c(C#C[Si](C(C)C)(C(C)C)C(C)C)c2nc3c4ccccc4c(=O)c4ccccc4c3nc12)(C(C)C)C(C)C

- emission maximum (in ClCCl): 470 nm
Structure (SMILES): Cc1cc2ccccc2c2c1c1ccccc1n2-c1ccc(C#N)cc1

- emission maximum (in ClCCl): 427 nm
Structure (SMILES): c1ccc2cc(-c3c4ccccc4c(-c4ccc(-n5c6ccccc6c6ccccc65)cc4)c4ccccc34)ccc2c1

- emission maximum (in CO): 493 nm
Structure (SMILES): Brc1cnc(-c2ccc(N(c3ccccc3)c3ccccc3)cc2)s1

- emission maximum (in ClCCl): 421 nm
Structure (SMILES): COC(=O)c1ccc(Oc2ccc3c4c(cccc24)C(=O)N(c2c(C(C)C)cccc2C(C)C)C3=O)cc1

- emission maximum (in CO): 558 nm
Structure (SMILES): Cc1cc(C)c(B(c2cc(-c3ccccc3)sc2-c2sc(-c3ccccc3)cc2P(=O)(c2ccccc2)c2ccccc2)c2c(C)cc(C)cc2C)c(C)c1

- emission maximum (in CC#N): 407 nm
- emission maximum (in CCCCCCCCCCCCCCCC): 383 nm
- emission maximum (in CO): 442 nm
- emission maximum (in ClC(Cl)Cl): 398 nm
- emission maximum (in c1ccccc1): 393 nm
Structure (SMILES): O=C1c2ccccc2NC(c2ccccc2)N1Cc1ccccc1 (stereo not drawn)

- emission maximum (in C1COCCO1): 478 nm
- emission maximum (in CC#N): 479 nm
- emission maximum (in CCCCOCCCC): 477 nm
- emission maximum (in CCOC(C)=O): 477 nm
Structure (SMILES): COc1nc(Nc2ccc3c4cccc5cccc(c6cccc2c63)c54)nc(OC)n1

- emission maximum (in C1CCCCC1): 383 nm
Structure (SMILES): CCn1c2ccccc2c2ccc(-c3ccc(OC)cc3)cc21

- emission maximum (in C1CCCCC1): 503 nm
- emission maximum (in C1CCOC1): 540 nm
- emission maximum (in CC#N): 570 nm
- emission maximum (in CS(C)=O): 580 nm
- emission maximum (in ClCCl): 545 nm
Structure (SMILES): CN(C)c1ccc(/C=C/c2nc(/C=C/c3ccc(N(C)C)cc3)c3ccccc3n2)cc1

- emission maximum (in ClCCl): 476 nm
Structure (SMILES): c1ccc2c(c1)ccc1ccc3ccc4ccc5ccccc5c4c3c12

- emission maximum (in ClCCl): 498 nm
Structure (SMILES): CCCCCCc1cc2c3c(c1)c(=C1c4ccccc4Sc4ccccc41)c1cc(CCCCCC)cc4c1N3c1c(cc(CCCCCC)cc1c4=C1c3ccccc3Sc3ccccc31)c2=C1c2ccccc2Sc2ccccc21

- emission maximum (in CO): 586 nm
Structure (SMILES): COc1ccc(-c2cc(B(c3c(C)cc(C)cc3C)c3c(C)cc(C)cc3C)c(-c3sc(-c4ccc(OC)cc4)cc3P(=O)(c3ccccc3)c3ccccc3)s2)cc1
